According to PubChem BioAssay (NCI):
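Five compound concentrations were applied to cells in 96-well plates for 48 hours; endpoints were derived by simple linear interpolation of the resulting dose-response curve. The concentration for 50% growth inhibition is given as GI50. Definition used: TGI = concentration required for complete inhibition of growth.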

Legend:
Test in all cases: growth of human tumour cells (NCI), 48 h
[1] = tested on: HS 578T breast
[2] = tested on: SN12C renal
[3] = tested on: SF-295 CNS
[4] = tested on: M14 melanoma
[5] = tested on: NCI-H226 lung
[6] = tested on: PC-3 prostate
[7] = tested on: A498 renal
[8] = tested on: OVCAR-8 ovarian
[9] = tested on: OVCAR-5 ovarian
[10] = tested on: TK-10 renal
[11] = tested on: MDA-MB-435
[12] = tested on: MALME-3M melanoma
[13] = tested on: SF-539 CNS
[14] = tested on: K-562 leukemia
[15] = tested on: HCC-2998 colon
[16] = tested on: SK-OV-3 ovarian
[17] = tested on: KM12 colon
[18] = tested on: RXF 393 renal
[19] = tested on: SK-MEL-2 melanoma
[20] = tested on: SNB-75 CNS
[21] = tested on: A549 NSCLC
[22] = tested on: NCI-H460 lung
[23] = tested on: DU-145 prostate
[24] = tested on: SF-268 CNS
[25] = tested on: MDA-N
[26] = tested on: MOLT-4 leukemia
[27] = tested on: HOP-62 NSCLC
[28] = tested on: MDA-MB-231 breast
[29] = tested on: SNB-19 CNS
[30] = tested on: CAKI-1 renal
[31] = tested on: RPMI-8226 leukemia
[32] = tested on: EKVX NSCLC
[33] = tested on: BT-549 breast
[34] = tested on: T-47D breast
[35] = tested on: NCI/ADR-RES ovarian
[36] = tested on: SW-620 colon
[37] = tested on: HCT-15 colon
[38] = tested on: IGROV1 ovarian
[39] = tested on: HL-60(TB) leukemia
[40] = tested on: NCI-H522 lung
[41] = tested on: CCRF-CEM leukemia
[42] = tested on: NCI-H23 lung
[43] = tested on: OVCAR-4 ovarian
[44] = tested on: U251 CNS
[45] = tested on: MCF7 breast
[46] = tested on: UO-31 renal
[47] = tested on: HOP-92 NSCLC
[48] = tested on: COLO 205 colon
[49] = tested on: SK-MEL-5 melanoma
[50] = tested on: SK-MEL-28 melanoma
[51] = tested on: HCT-116 colon
[52] = tested on: UACC-257 melanoma
[53] = tested on: UACC-62 melanoma
[54] = tested on: ACHN renal
[55] = tested on: SR leukemia
[56] = tested on: LOX IMVI melanoma
[57] = tested on: OVCAR-3 ovarian
[58] = tested on: HT29 colon
[59] = tested on: 786-0 renal

Compound: O=c1c(Br)c(-c2ccccc2)[nH]c2ccccc12
- TGI [1]: > 100 µM
- GI50 [2]: > 100 µM
- TGI [2]: > 100 µM
- GI50 [3]: 32.9 µM
- TGI [3]: > 100 µM
- TGI [4]: > 100 µM
- GI50 [5]: 37.1 µM
- TGI [5]: > 100 µM
- GI50 [6]: 23.6 µM
- TGI [6]: > 78.3 µM
- GI50 [7]: 31.6 µM
- TGI [7]: > 100 µM
- TGI [8]: > 100 µM
- GI50 [9]: > 100 µM
- TGI [9]: > 100 µM
- TGI [10]: > 100 µM
- TGI [11]: > 100 µM
- TGI [12]: > 100 µM
- TGI [13]: > 100 µM
- GI50 [14]: 28.9 µM
- TGI [14]: > 100 µM
- GI50 [15]: > 100 µM
- TGI [15]: > 100 µM
- TGI [16]: > 100 µM
- GI50 [17]: 5.63 µM
- TGI [17]: 63.8 µM
- TGI [18]: > 100 µM
- GI50 [19]: > 100 µM
- TGI [19]: > 100 µM
- GI50 [20]: 63.1 µM
- TGI [20]: > 100 µM
- GI50 [21]: 0.168 µM
- TGI [21]: 1.12 µM
- GI50 [22]: 3.54 µM
- TGI [22]: > 100 µM
- TGI [23]: > 100 µM
- GI50 [24]: > 100 µM
- TGI [24]: > 100 µM
- TGI [25]: > 85.4 µM
- GI50 [26]: 20.8 µM
- TGI [26]: > 75.6 µM
- TGI [27]: > 100 µM
- TGI [28]: 11.8 µM
- GI50 [29]: > 100 µM
- TGI [29]: > 100 µM
- GI50 [30]: 0.066 µM
- TGI [30]: 0.892 µM
- TGI [31]: > 100 µM
- GI50 [32]: 41.5 µM
- TGI [32]: > 100 µM
- TGI [33]: > 100 µM
- GI50 [34]: 36.4 µM
- TGI [34]: > 100 µM
- TGI [35]: > 100 µM
- TGI [36]: > 100 µM
- TGI [37]: > 100 µM
- GI50 [38]: > 89.4 µM
- TGI [38]: > 100 µM
- TGI [39]: 56.6 µM
- GI50 [40]: > 100 µM
- TGI [40]: > 100 µM
- TGI [41]: > 100 µM
- TGI [42]: > 100 µM
- TGI [43]: > 100 µM
- TGI [44]: > 100 µM
- TGI [45]: > 100 µM
- TGI [46]: 6.58 µM
- GI50 [47]: 19 µM
- TGI [47]: > 100 µM
- TGI [48]: > 100 µM
- GI50 [49]: 13.6 µM
- TGI [49]: 29.9 µM
- TGI [50]: > 100 µM
- TGI [51]: > 100 µM
- TGI [52]: 98 µM
- TGI [53]: > 100 µM
- TGI [54]: > 100 µM
- TGI [55]: > 100 µM
- TGI [56]: > 100 µM
- TGI [57]: > 100 µM
- TGI [58]: > 100 µM

Compound: CC(=O)c1c(C)cn(S(=O)(=O)NC(=O)Nc2nncs2)c1C
- TGI [1]: > 100 µM
- TGI [2]: > 100 µM
- TGI [3]: > 100 µM
- TGI [4]: > 100 µM
- TGI [5]: > 100 µM
- TGI [6]: > 100 µM
- TGI [7]: > 100 µM
- TGI [8]: > 100 µM
- TGI [9]: > 100 µM
- TGI [10]: > 100 µM
- TGI [11]: > 100 µM
- TGI [12]: > 100 µM
- TGI [14]: > 100 µM
- TGI [15]: > 100 µM
- TGI [16]: > 100 µM
- TGI [17]: > 100 µM
- TGI [18]: > 100 µM
- TGI [59]: > 100 µM
- TGI [19]: > 100 µM
- TGI [20]: > 100 µM
- TGI [21]: > 100 µM
- TGI [22]: > 100 µM
- TGI [23]: > 100 µM
- TGI [24]: > 100 µM
- TGI [25]: > 100 µM
- TGI [26]: > 100 µM
- TGI [27]: > 100 µM
- TGI [28]: > 100 µM
- TGI [29]: > 100 µM
- TGI [30]: > 100 µM
- TGI [31]: > 100 µM
- TGI [32]: > 100 µM
- TGI [33]: > 100 µM
- TGI [34]: > 100 µM
- TGI [35]: > 100 µM
- TGI [36]: > 100 µM
- TGI [37]: > 100 µM
- TGI [38]: > 100 µM
- TGI [39]: > 100 µM
- TGI [40]: > 100 µM
- TGI [41]: 78.1 µM
- TGI [42]: > 100 µM
- TGI [43]: > 100 µM
- TGI [44]: > 100 µM
- TGI [45]: > 100 µM
- TGI [46]: > 100 µM
- TGI [47]: > 100 µM
- TGI [48]: > 100 µM
- TGI [49]: > 100 µM
- TGI [50]: > 100 µM
- TGI [51]: > 100 µM
- TGI [52]: > 100 µM
- TGI [53]: > 100 µM
- TGI [54]: > 100 µM
- TGI [55]: > 100 µM
- TGI [56]: > 100 µM
- TGI [57]: > 100 µM
- TGI [58]: > 100 µM

Compound: COC(=O)Cc1c([C@H]2[C@H](CC(=O)OC)c3ccccc3N2C(=O)C(F)(F)F)[nH]c2ccccc12
- TGI [1]: 92.1 µM
- TGI [2]: > 100 µM
- TGI [3]: 80.7 µM
- TGI [5]: > 100 µM
- TGI [6]: > 100 µM
- TGI [7]: > 100 µM
- TGI [8]: > 100 µM
- TGI [9]: > 100 µM
- TGI [10]: > 100 µM
- TGI [11]: 62 µM
- TGI [12]: 90.6 µM
- TGI [13]: > 100 µM
- TGI [14]: > 100 µM
- TGI [15]: > 100 µM
- TGI [16]: > 100 µM
- TGI [18]: 98.4 µM
- TGI [59]: > 100 µM
- TGI [19]: 58.3 µM
- TGI [20]: 84.6 µM
- TGI [21]: > 100 µM
- TGI [22]: 55 µM
- TGI [23]: > 100 µM
- TGI [24]: > 100 µM
- TGI [25]: > 100 µM
- TGI [26]: 38.4 µM
- TGI [27]: > 100 µM
- TGI [28]: 73.4 µM
- TGI [29]: > 100 µM
- TGI [30]: > 100 µM
- TGI [31]: > 100 µM
- TGI [32]: > 100 µM
- TGI [33]: 97.2 µM
- TGI [34]: > 100 µM
- TGI [35]: 91.3 µM
- TGI [36]: > 100 µM
- TGI [37]: > 100 µM
- TGI [38]: > 100 µM
- TGI [39]: > 100 µM
- TGI [40]: 56.2 µM
- TGI [41]: 56.2 µM
- TGI [42]: > 100 µM
- TGI [43]: > 100 µM
- TGI [44]: 47.8 µM
- TGI [45]: > 100 µM
- TGI [46]: > 100 µM
- TGI [47]: > 100 µM
- TGI [48]: 36.1 µM
- TGI [49]: 24.8 µM
- TGI [50]: > 100 µM
- TGI [51]: > 100 µM
- TGI [52]: > 100 µM
- TGI [53]: 30.3 µM
- TGI [54]: > 100 µM
- TGI [55]: 82.3 µM
- TGI [56]: > 100 µM
- TGI [57]: 38 µM
- TGI [58]: > 100 µM

Compound: O=C(OC1C=C=CS(=O)(=O)CC#C/C=C\1)c1cnc2ccccc2n1 (centres undefined)
- TGI [1]: > 100 µM
- TGI [2]: > 100 µM
- TGI [3]: > 100 µM
- TGI [4]: > 100 µM
- TGI [5]: > 100 µM
- TGI [6]: > 100 µM
- TGI [7]: > 100 µM
- TGI [8]: > 100 µM
- TGI [9]: > 100 µM
- TGI [10]: > 100 µM
- TGI [11]: > 100 µM
- TGI [12]: > 100 µM
- TGI [13]: > 100 µM
- TGI [14]: > 100 µM
- TGI [15]: > 100 µM
- TGI [16]: > 100 µM
- TGI [17]: > 100 µM
- TGI [18]: > 100 µM
- TGI [19]: > 100 µM
- TGI [20]: > 100 µM
- TGI [21]: > 100 µM
- TGI [22]: > 100 µM
- TGI [23]: > 100 µM
- TGI [24]: > 100 µM
- TGI [25]: > 100 µM
- TGI [26]: > 100 µM
- TGI [27]: > 100 µM
- TGI [28]: > 100 µM
- TGI [29]: > 100 µM
- TGI [30]: > 100 µM
- TGI [31]: > 100 µM
- TGI [32]: > 100 µM
- TGI [33]: > 100 µM
- TGI [34]: > 100 µM
- TGI [35]: > 100 µM
- TGI [36]: > 100 µM
- TGI [37]: > 100 µM
- TGI [38]: > 100 µM
- TGI [39]: > 100 µM
- TGI [40]: 51.6 µM
- TGI [41]: > 100 µM
- TGI [42]: > 100 µM
- TGI [43]: > 100 µM
- TGI [44]: > 100 µM
- TGI [45]: > 100 µM
- TGI [46]: > 100 µM
- TGI [47]: 90.1 µM
- TGI [48]: > 100 µM
- TGI [49]: > 100 µM
- TGI [50]: > 100 µM
- TGI [51]: > 100 µM
- TGI [52]: > 100 µM
- TGI [53]: > 100 µM
- TGI [54]: > 100 µM
- TGI [55]: > 100 µM
- TGI [56]: > 100 µM
- TGI [57]: > 100 µM
- TGI [58]: > 100 µM
